Data taken from patent US10682371B2, “Small molecule conjugates specifically activated in tumor microenvironment for targeting and use thereof” (priority 2014, dated 2020).
Where two headings read alike, the source gives them in different places.

Key:
Human heart = assay type: biochemical; details: for Activation Efficiencies (%): Human heart homogenate, 1 mg/ml compound; for Activation ratio (%) in homogenates from different tumor tissues: Human heart, 1 mg/ml
[1] = test system: Human fibrosarcoma HT-1080 tumor tissue homogenate; assay type: biochemical; details: for Activation Efficiencies (%): Human fibrosarcoma HT-1080 tumor tissue homogenate (30 μg/ml), 1 mg/ml compound
How it was run: (§1)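 Compounds at 1 mg/ml were incubated at 37°C with 100 μg acidized tissue homogenate (pH 6.0). Activation by homogenate proteases was assessed.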

tumor tissue homogenates = assay type: biochemical
How it was run: as §1

[2] = Solubility / formulation test in solvent 1 and solvent 2; assay type: physicochemical; details: for Concentration achieved, completely dissolved in both solvent 1 and solvent 2: solvent 1 injectable water
Protocol: In Table 11, AAN, AANL and AANK indicate the linkage formed by small peptides in the compounds, A is Ala, N is Asn, L is Leu and K is Lys. […] The dissolution concentration is 10 mg/ml.
B1, B2, B3 and B4 and various control compounds were dried under vacuum, sterilized via gas sterilization, and separately packing in a sterile room. Before animal test, B1, B2, B3 and B4 were dissolved by solvent 1 (injectable water) or solvent 2 (30% alcohol, 70% injectable water) and diluted by injectable water to the desired concentration in sterile room. […] Change in solubility may greatly affect the formulation scheme of a drug.
D1, D2, D3, D4 and various control compounds were dried under vacuum, sterilized via gas sterilization, and separately packing in a sterile room. […] Change in solubility may greatly affect the formulation scheme of a drug.

[3] = test system: Human prostate cancer PC-3 cells / Panc-1 cells; experiment: Tumor treatment in nude mice (PC-3 cells purchased, Panc-1 cells injected; Examples 22, 32, 42); assay type: in vivo; details: for Size of tumor (mm^3) Day 10 / inhibitory rate on tumor Day 10 / Size of tumor (mm^3) Day 24 / inhibitory rate on tumor Day 24: nude mice, IV once weekly for four weeks, Paclitaxel 8 mg/kg; for Inhibition on tumor growth, in words: compared with parent drug group (same molar concentration) and control group
Protocol: (§2) 1) Human prostate cancer PC-3 cells were purchased from American type culture collection (ATCC) and identified according the specification provided by ATCC. Cells were cultivated in DMEM culture solution containing 10% fetal bovine serum at 37° C. and 5% CO2. The cells were passaged for every three days and cells within the 15th passage were used.
2) Production of tumor. 5×10^6Panc-1 cells were subcutaneously injected to the back of the nude mice. Mice were randomly grouped after the tumor reached at least 100 mm^3. Then treatment began and the day on which the treatment began was day 1.
The control group was administered by physiological saline. Drugs were administered once weekly for four weeks.
According to the clinical application of B1, B2, B3 and B4, drugs were intravenously injected (IV). […] The control group was administered by physiological saline. Drugs were administered once weekly for four weeks.

4T1 cells = experiment: BALB/C mice model for tumor metastasis (4T1, lung metastases); assay type: in vivo; details: for Inhibitory effect on tumor metastasis, in words: compared with parent drug group and control group
Protocol: as §2, with “4T1” for “Human prostate cancer PC-3”
2) Production of tumor metastasis. 10^6 […] were subcutaneously injected to the back of the BALB/C mice. Mice were randomly grouped after the tumor grew to about 1.5 cm. The subcutaneous tumor was removed by surgery and drug treatment began. Mice were killed after anesthesia on day 27. The whole lung was taken out and put into Bouin's solution for staining. The number of the tumor metastasized to lung was counted with anatomical microscope.
(§3) The control group was administered by physiological saline. Drugs were administered once for every three days for 4 times.
as §3
According to the clinical application of B1, B2, B3 and B4, drugs were intravenously injected (IV). […] The control group was administered by physiological saline. Drugs were administered once for every three days for 4 times.
According to the clinical application of D1, D2, D3 and D4, drugs were intravenously injected (IV). […] The control group was administered by physiological saline. Drugs were administered once for every three days for 4 times.

BALB/C mice = experiment: Maximum tolerated dose (MTD) / acute toxicity by single intravenous injection; details: for Behaviors and death observed: BALB/C mice receiving 90 mg/kg injection; for MTD (maximum tolerated dose): intravenous injection, one time
[4] = Table 28, BALB/C mice, 4T1, lung metastases day 27, IV every three days for 4 times, A1-A4 12 mg/kg, Paclitaxel 4 mg/kg
[5] = single intravenous injection, 125 mg/kg, 10 BALB/C mice per group
[6] = single intravenous injection, 150 mg/kg, 10 BALB/C mice per group
[7] = single intravenous injection, 175 mg/kg, 10 BALB/C mice per group
[8] = single intravenous injection, 200 mg/kg, 10 BALB/C mice per group
[9] = day 27, IV once every three days for 4 times, E1-E4 15 mg/kg, mitomycin 1 mg/kg
[10] = lung metastases counted on day 27, IV once every three days for 4 times, E1-E4 15 mg/kg, mitomycin 1 mg/kg
[11] = 4T1, BALB/C mice, lung, day 27, IV every three days for 4 times, S1′-S4′ 12 mg/kg, Paclitaxel 4 mg/kg

4-N—(N—(N—(N-(6-maleimido caproyl)-L-alanyl)-L-alanyl)-L-asparaginyl)-amino benzyl alcohol-MMAE-carbamate [Compound S6]
Activation Efficiencies (%) (Human heart): 5.3%
Activation Efficiencies (%) [1]: 24.3%
Activation efficiency by tumor tissue, in words (tumor tissue homogenates): relatively low activation efficiency

COCCOCCOCCOCCOCCOCC(=O)NCCCC[C@H](NC(=O)COCCOCCOCCOCCOCCOC)C(=O)N[C@H](C)C(=O)N[C@H](C)C(=O)N[C@H](CC(N)=O)C(=O)Nc1ccc(COC(=O)OC(C(=O)OC2C[C@@]3(O)[C@@H](OC(=O)c4ccccc4)[C@H]4[C@](C)(C(=O)[C@H](OC(C)=O)C(=C2C)C3(C)C)[C@@H](O)CC2OC[C@]24OC(C)=O)[C@@H](NC(=O)c2ccccc2)c2ccccc2)cc1 (stereo partly shown) [Compound A2]
Activation ratio (%) in homogenates from different tumor tissues (Human heart; acidized homogenate pH6.0, Paclitaxel release by HPLC): none
solubility in Solvent 1 ([2]; solvent 1 (injectable water), Table 22, Paclitaxel series): soluble
Concentration achieved, completely dissolved in both solvent 1 and solvent 2 ([2]; solvent 2 45% alcohol, 55% injectable water): 10000 µg/mL
solubility in Solvent 2 ([2]; solvent 2 (45% alcohol, 55% injectable water), Table 22, Paclitaxel series): soluble
Solubility in water, in words ([2]; water): can directly dissolve in water
Size of tumor (mm^3) Day 10 ([3]; Table 26, A1-A4 24 mg/kg): 55.19 ± 56.2 mm^3
inhibitory rate on tumor Day 10 ([3]; Table 26, A1-A4 24 mg/kg): 81.3%
Size of tumor (mm^3) Day 24 ([3]; Table 26, A1-A4 24 mg/kg): 44.43 ± 47.9 mm^3
inhibitory rate on tumor Day 24 ([3]; Table 26, A1-A4 24 mg/kg): 88.3%
Inhibition on tumor growth, in words [3]: greatly improved
Inhibitory rate on metastasis (4T1 cells; [4]): 93.9%
Number of metastasized tumor (4T1 cells; [4]): 9 ± 5
Inhibitory effect on tumor metastasis, in words (4T1 cells): greatly improved
Behaviors and death observed (BALB/C mice): no pilo-erection, hair tousle and lackluster, lethargy, stoop, irritable reaction and death
MTD (maximum tolerated dose) (BALB/C mice; BALB/C mice): about 90 mg/kg
Mortality rate (%) (BALB/C mice; [5]): 10%
Number of dead animal (BALB/C mice; [5]): 2
Mortality rate (%) (BALB/C mice; [6]): 0%
Number of dead animal (BALB/C mice; [6]): 0
Mortality rate (%) (BALB/C mice; [7]): 0%
Number of dead animal (BALB/C mice; [7]): 0
Mortality rate (%) (BALB/C mice; [8]): 0%
Number of dead animal (BALB/C mice; [8]): 0

COCCOCCOCCOCCOCCOCC(=O)N[C@H](C)C(=O)N[C@H](C)C(=O)N[C@H](CC(N)=O)C(=O)Nc1ccc(COC(=O)N2[C@H]3[C@@H]2CN2C4=C(C(=O)C(N)=C(C)C4=O)[C@H](COC(N)=O)[C@]32OC)cc1 [Compound E2]
Activation ratio (%) in homogenates from different tumor tissues ([1]; Human fibrosarcoma HT-1080, 37° C., 1 mg/ml, 100 μg acidized homogenate): 85.7%
Inhibitory effect on tumor metastasis, in words (4T1 cells): greatly improved
Inhibitory rate on metastasis (4T1 cells; [9]): 94.1%
Number of metastasized tumor (4T1 cells; [10]): 8 ± 7
Mortality rate (%) (BALB/C mice; 50 mg/kg single IV injection, 10 BALB/C mice): 0%
Number of dead animal (BALB/C mice; 50 mg/kg single IV injection, 10 BALB/C mice, observed 17 days): 0
Mortality rate (%) (BALB/C mice; 70 mg/kg single IV injection, 10 BALB/C mice): 0%
Number of dead animal (BALB/C mice; 70 mg/kg single IV injection, 10 BALB/C mice, observed 17 days): 0
Mortality rate (%) (BALB/C mice; 90 mg/kg single IV injection, 10 BALB/C mice): 0%
Number of dead animal (BALB/C mice; 90 mg/kg single IV injection, 10 BALB/C mice, observed 17 days): 0
Mortality rate (%) (BALB/C mice; 110 mg/kg single IV injection, 10 BALB/C mice): 10%
Number of dead animal (BALB/C mice; 110 mg/kg single IV injection, 10 BALB/C mice, observed 17 days): 1
Behaviors and death observed (BALB/C mice): no pilo-erection, hair tousle and lackluster, lethargy, stoop, irritable reaction and death

COc1cccc2c1C(=O)c1c(O)c3c(c(O)c1C2=O)C[C@@](O)(C(C)=O)C[C@@H]3O[C@H]1C[C@H](NC(=O)OCc2ccc(NC(=O)[C@H](CC(N)=O)NC(=O)[C@H](C)NC(=O)[C@H](C)NC(=O)CCCCCN3C(=O)C=CC3=O)cc2)[C@H](O)[C@H](C)O1 [Compound S5, 4-N—(N—(N—(N-(6-maleimidocaproyl)-L-alanyl)-L-alanyl)-L-asparaginyl)-amino benzyl alcohol-daunorubicin-carbamate]
Activation Efficiencies (%) (Human heart): 3.5%
Activation Efficiencies (%) [1]: 98.4%

COCCOCCOCCOCCOCCOCC(=O)N[C@H](C)C(=O)N[C@H](C)C(=O)N[C@H](CC(N)=O)C(=O)Nc1ccc(COC(=O)OC(C(=O)OC2C[C@@]3(O)[C@@H](OC(=O)c4ccccc4)[C@H]4[C@](C)(C(=O)[C@H](OC(C)=O)C(=C2C)C3(C)C)[C@@H](O)CC2OC[C@]24OC(C)=O)[C@@H](NC(=O)c2ccccc2)c2ccccc2)cc1 (stereo partly shown) [S2′]
Activation ratio (%) in homogenates from different tumor tissues (Human heart; 37°): none
solubility in Solvent 1 ([2]; Solvent 1 injectable water, dissolution concentration 10 mg/ml): soluble
solubility in Solvent 2 ([2]; Solvent 2: 50% injectable water, 45%-49% propanediol, 1%-5% Tween80, dissolution concentration 10 mg/ml): soluble
Concentration achieved, completely dissolved in both solvent 1 and solvent 2 ([2]; solvent 2 50% injectable water, 42%-49% propanediol, 1%-8% Tween80): 10000 µg/mL
Inhibition on tumor growth, in words [3]: greatly improved
Size of tumor (mm^3) Day 10 ([3]; S1′-S4′ 24 mg/kg): 60.17 ± 30.26 mm^3
inhibitory rate on tumor Day 10 ([3]; S1′-S4′ 24 mg/kg): 36.4%
Size of tumor (mm^3) Day 24 ([3]; S1′-S4′ 24 mg/kg): 42.39 ± 62.24 mm^3
inhibitory rate on tumor Day 24 ([3]; S1′-S4′ 24 mg/kg): 83.01%
Inhibitory rate on metastasis (4T1 cells; [11]): 94.1%
Number of metastasized tumor (4T1 cells; [11]): 8 ± 7
Inhibitory effect on tumor metastasis, in words (4T1 cells): greatly improved
Behaviors and death observed (BALB/C mice): no pilo-erection, hair tousle and lackluster, lethargy, stoop, irritable reaction and death
MTD (maximum tolerated dose) (BALB/C mice; BALB/C mice): about 90 mg/kg
Mortality rate (%) (BALB/C mice; BALB/C mice, single iv, 125 mg/kg): 0%
Number of dead animal (BALB/C mice; BALB/C mice, single iv, 125 mg/kg, 10 animals): 0
Mortality rate (%) (BALB/C mice; BALB/C mice, single iv, 150 mg/kg): 0%
Number of dead animal (BALB/C mice; BALB/C mice, single iv, 150 mg/kg, 10 animals): 0
Mortality rate (%) (BALB/C mice; BALB/C mice, single iv, 175 mg/kg): 0%
Number of dead animal (BALB/C mice; BALB/C mice, single iv, 175 mg/kg, 10 animals): 0
Mortality rate (%) (BALB/C mice; BALB/C mice, single iv, 200 mg/kg): 10%
Number of dead animal (BALB/C mice; BALB/C mice, single iv, 200 mg/kg, 10 animals): 1

CO[C@@]12[C@H](COC(N)=O)C3=C(C(=O)C(C)=C(N)C3=O)N1C[C@@H]1N[C@@H]12 [mitomycin, reference compound]
Inhibitory rate on metastasis (4T1 cells; [9]): 5.9%
Number of metastasized tumor (4T1 cells; [10]): 128 ± 25
Mortality rate (%) (BALB/C mice; 6 mg/kg single IV injection, 10 BALB/C mice): 0%
Number of dead animal (BALB/C mice; 6 mg/kg single IV injection, 10 BALB/C mice, observed 17 days): 0
Mortality rate (%) (BALB/C mice; 7 mg/kg single IV injection, 10 BALB/C mice): 10%
Number of dead animal (BALB/C mice; 7 mg/kg single IV injection, 10 BALB/C mice, observed 17 days): 1
Mortality rate (%) (BALB/C mice; 8 mg/kg single IV injection, 10 BALB/C mice): 40%
Number of dead animal (BALB/C mice; 8 mg/kg single IV injection, 10 BALB/C mice, observed 17 days): 4
Mortality rate (%) (BALB/C mice; 9 mg/kg single IV injection, 10 BALB/C mice): 90%
Number of dead animal (BALB/C mice; 9 mg/kg single IV injection, 10 BALB/C mice, observed 17 days): 9
